Measured values as given in patent US20080280997A1, “Novel Pharmaceutical or Cosmetic Carriers Containing Cyclic Acetals” (GATTEFOSSE SAS, priority 2004, published 2008).
“Also recorded” adds a separate entry of the source. Each block holds one molecule with its values, some of them ahead of it.

Tests used:
Type in all cases: physicochemical
Miscibility in water = assay: Miscibility in water
Source text: The BDM molecule is produced following the same process as that used in example 1 (without solvents), using pentanal and glycerol. The substance obtained is confirmed by GC-MS analysis. Its water solubility is approximately 2 g in 100 g water. Beyond that, turbidity appears.

Solubility in oils = details: before turbidity appears
[1] = Solubility of EDM in oils, alcohols and water
Source text: 3/ Solubility of EDM in Oils and Alcohols
The solubility of EDM is studied in various oils, alcohols and water. The solubility results are expressed in g of EDM incorporable into 100 g of oil or ester before turbidity appears.

[2] = Solubilisation of UV filters with ETP, EDM and PDM; details: for Solubility of 1,2-butyl methoxydibenzoylmethane in the solvent: UV filter 1,2-butyl methoxydibenzoylmethane; for Solubility of Benzophenone-3 in the solvent: UV filter Benzophenone-3
Procedure: 4/ Solubilisation of Filters with ETP, EDM and PDM
The solubility of two organic UV filters (benzophenone-3 et 1,2-butyl methoxydibenzoylmethane) are assessed in ETP, EDM and PDM.
• homogenise the mixture for 30 seconds in a vortex mixer, • apply ultrasounds for 15 minutes (repeat if the filter is not miscible up to a maximum of 60 minutes), • for the following percentages, an identical quantity of UV filter is always added to a set initial quantity of solvent.
Solubility is expressed in g of filter soluble in 100 g of final solution.

[3] = Solubilisation of non-water soluble active ingredients in water assisted by solvent
Source text: Five hydrophobic active ingredients were solubilised in water using EDM.
The following table indicates what mass of solvent (g) must be added to solubilise 1 g of a mixture comprising 98% water and 2% active ingredient.
The smaller the quantity of solvent to be added, the greater its solubilising power.

[4] = Stability of the pH of an EDM solution; details: 5% EDM
Procedure: The stability of solutions at different pHs after adding 5% EDM was studied.
The different solutions were prepared: • using citric acid and Na2HPO4 for pHs between 3 and 7, • using boric acid, KCl and NaOH for pHs between 8 and 10.

[5] = Compatibility of EDM with gelling agents
Source text: We tested the influence of 5% EDM in gels produced using gelling agents with different chemical natures.

[6] = Solubilisation of active ingredients in EDM; details: solubility in EDM
Procedure: 5/ Solubilisation of Active Ingredients in EDM
The solubility of the various active ingredients in EDM was studied. It is expressed in g of active ingredient soluble in 100 ml of EDM.

[7] = active ingredient Bisabolol nat.
[8] = active ingredient Eusolex 4360 (Benzophenone 3)
[9] = active ingredient HE eucalyptus (Eucalyptus globulus leaf oil)
[10] = active ingredient Vitamin E (Tocopherol)
[11] = buffer solution initial pH 4.25
[12] = buffer solution initial pH 6.15
[13] = buffer solution initial pH 7.15
[14] = buffer solution initial pH 10.0

water solubility (Miscibility in water; beyond that, turbidity appears): approximately 2 g in 100 g water
Molecule: 2-butyl-1,3-dioxolane-4-hydroxymethyl and 2-butyl-1,3-dioxan-5-ol [BDM]
Miscibility in water (Miscibility in water): not miscible in water; also recorded: Non-miscible

Molecule: 2-ethyl-4-hydroxymethyl-1,3-dioxolane and 2-ethyl-1,3-dioxan-5-ol [EDM]
Miscibility in water (Miscibility in water): Miscible
Solubility in Medium-chain triglyceride (MCT) (Solubility in oils): >100 g of solvent solubilised in 100 g of oil or ester
Solubility in Octyldodecanol myristate (ODM) (Solubility in oils): 50 g of solvent solubilised in 100 g of oil or ester
Solubility in Sunflower oil (Solubility in oils): >100 g of solvent solubilised in 100 g of oil or ester
EDM mass ([1]; in Apricot kernel oil): >100 g of EDM incorporable into 100 g of oil or ester
EDM mass ([1]; in Arlamol E (PPG-15 Stearyl Ether)): >100 g of EDM incorporable into 100 g of oil or ester
EDM mass ([1]; in Butylene Glycol): >100 g of EDM incorporable into 100 g of oil or ester
EDM mass ([1]; in Castor oil): >100 g of EDM incorporable into 100 g of oil or ester
EDM mass ([1]; in DPPG (Propylene glycol dipelargonate)): >100 g of EDM incorporable into 100 g of oil or ester
EDM mass ([1]; in Glycerine): >100 g of EDM incorporable into 100 g of oil or ester
EDM mass ([1]; in IPM (Isopropyl myristate)): >100 g of EDM incorporable into 100 g of oil or ester
EDM mass ([1]; in Labrafac CC (Caprylic/capric triglyceride)): >100 g of EDM incorporable into 100 g of oil or ester
EDM mass ([1]; in PEG-300): >100 g of EDM incorporable into 100 g of oil or ester
EDM mass ([1]; in Propylene Glycol): >100 g of EDM incorporable into 100 g of oil or ester
EDM mass ([1]; in Tegosoft TN (C12/C15 alkyl benzoate)): >100 g of EDM incorporable into 100 g of oil or ester
EDM mass ([1]; in Water): >100 g of EDM incorporable into 100 g of oil or ester
Solubility of 1,2-butyl methoxydibenzoylmethane in the solvent [2]: >32 g of filter soluble in 100 g of final solution
Solubility of Benzophenone-3 in the solvent [2]: >40 g of filter soluble in 100 g of final solution
Mass of solvent to solubilise 1 g of mixture 98% water and 2% active ingredient [3, 7]: 0.9 g
Mass of solvent to solubilise 1 g of mixture 98% water and 2% active ingredient [3, 8]: 1.7 g
Mass of solvent to solubilise 1 g of mixture 98% water and 2% active ingredient [3, 9]: 1 g
Mass of solvent to solubilise 1 g of mixture 98% water and 2% active ingredient ([3]; active ingredient Menthol): 0.7 g
Mass of solvent to solubilise 1 g of mixture 98% water and 2% active ingredient [3, 10]: 2.0 g
pH after adding EDM ([4]; buffer solution initial pH 3.1): 3.15
pH at 1 month ([4]; buffer solution initial pH 3.1): 3
pH after adding EDM [4, 11]: 4.3
pH at 1 month [4, 11]: 4.2
pH after adding EDM ([4]; buffer solution initial pH 5.1): 5.15
pH at 1 month ([4]; buffer solution initial pH 5.1): 5.1
pH after adding EDM [4, 12]: 6.2
pH at 1 month [4, 12]: 6.1
pH after adding EDM [4, 13]: 7.2
pH at 1 month [4, 13]: 7.1
pH after adding EDM ([4]; buffer solution initial pH 8.0): 8.0
pH at 1 month ([4]; buffer solution initial pH 8.0): 8.0
pH after adding EDM ([4]; buffer solution initial pH 9.0): 9.1
pH at 1 month ([4]; buffer solution initial pH 9.0): 9.0
pH after adding EDM [4, 14]: 10.0
pH at 1 month [4, 14]: 10.0
pH variations observed ([4]; buffer solutions pH 3 to 10, not significant): approximately 0.1 pH units
Viscosity variation ([5]; 5% EDM in gels of Blanose 7HF, Jaguar HP 105, Keltrol T, Natrosol 250HX (cell wraps: Small variation)): Small
Viscosity drop ([5]; 5% EDM in gels of Novemer EC-1, Sepigel 305): Drop >30%
Breaking of gels on adding EDM ([5]; 5% EDM, gelling agents of the different families tested): none of the gels formulated is broken

Molecule: 2-propyl-4-hydroxymethyl-1,3-dioxolane with 2-propyl-1,3-dioxan-5-ol [PDM]
Miscibility in water (Miscibility in water): Miscible
Solubility in Medium-chain triglyceride (MCT) (Solubility in oils): >100 g of solvent solubilised in 100 g of oil or ester
Solubility in Octyldodecanol myristate (ODM) (Solubility in oils): 100 g of solvent solubilised in 100 g of oil or ester
Solubility in Sunflower oil (Solubility in oils): >100 g of solvent solubilised in 100 g of oil or ester
Solubility of 1,2-butyl methoxydibenzoylmethane in the solvent [2]: 22 g of filter soluble in 100 g of final solution
Solubility of Benzophenone-3 in the solvent [2]: 18 g of filter soluble in 100 g of final solution

Molecule: CO[C@H]1CO[C@H]2[C@@H]1OC[C@H]2OC [Arlasolve DMI, Dimethyl Isosorbide, reference compound]
Mass of solvent to solubilise 1 g of mixture 98% water and 2% active ingredient [3, 7]: 2.3 g
Mass of solvent to solubilise 1 g of mixture 98% water and 2% active ingredient [3, 8]: 2.3 g
Mass of solvent to solubilise 1 g of mixture 98% water and 2% active ingredient [3, 9]: 2.2 g
Mass of solvent to solubilise 1 g of mixture 98% water and 2% active ingredient ([3]; active ingredient Menthol): 1.7 g
Mass of solvent to solubilise 1 g of mixture 98% water and 2% active ingredient [3, 10]: 5.0 g

Molecule: CC(C)=CCC[C@](C)(O)C1CC=C(C)CC1 (some centres unmarked) [Bisabolol nat., Bisabolol]
Mass of active ingredient (g) [6]: >100 g of active ingredient soluble in 100 ml of EDM

Miscibility in water (Miscibility in water): Miscible
Molecule: CCC1(CO)COC(C)OC1 (centres unmarked) [ETP, 2-methyl-5-ethyl-5-hydroxymethyl-1,3-dioxane]
Solubility in Medium-chain triglyceride (MCT) (Solubility in oils): >100 g of solvent solubilised in 100 g of oil or ester
Solubility in Octyldodecanol myristate (ODM) (Solubility in oils): 100 g of solvent solubilised in 100 g of oil or ester
Solubility in Sunflower oil (Solubility in oils): >100 g of solvent solubilised in 100 g of oil or ester
Solubility of 1,2-butyl methoxydibenzoylmethane in the solvent [2]: 5 g of filter soluble in 100 g of final solution
Solubility of Benzophenone-3 in the solvent [2]: 35 g of filter soluble in 100 g of final solution

Molecule: CC1CCC(C(C)C)C(O)C1 (centres unmarked) [Menthol]
Mass of active ingredient (g) [6]: >100 g of active ingredient soluble in 100 ml of EDM

Molecule: CCCCC(CC)COC(=O)C=Cc1ccc(OC)cc1 (centres unmarked) [Parsol MCX, Ethylhexyl methoxycinnamate]
Mass of active ingredient (g) [6]: >100 g of active ingredient soluble in 100 ml of EDM

Molecule: Glycerol formal [reference compound]
Miscibility in water (Miscibility in water): Miscible
Solubility in Medium-chain triglyceride (MCT) (Solubility in oils): <12 g of solvent solubilised in 100 g of oil or ester
Solubility in Octyldodecanol myristate (ODM) (Solubility in oils): <12 g of solvent solubilised in 100 g of oil or ester
Solubility in Sunflower oil (Solubility in oils): 12 g of solvent solubilised in 100 g of oil or ester

Molecule: Retinal [Vitamin A]
Mass of active ingredient (g) [6]: >100 g of active ingredient soluble in 100 ml of EDM

Molecule: Tocopherol [Vitamin E]
Mass of active ingredient (g) [6]: >100 g of active ingredient soluble in 100 ml of EDM
